# Molecular target: T1, SLC1A3 (Homo sapiens, UniProt P43003)
# T1 construct: overexpressed in HEK293-JI cells co-expressing iAspSnFR
# Experiment: cellular uptake read by iAspSnFR, flow cytometry
# Assay type: cell-based
# Details: range is the 95% CI, no central value printed; 3 h starved cells, 30 min incubation; first (TFB-TBOA-sensitive) phase of a biphasic curve; read-out: K0.5
# T1 sequence (P43003 whole entry): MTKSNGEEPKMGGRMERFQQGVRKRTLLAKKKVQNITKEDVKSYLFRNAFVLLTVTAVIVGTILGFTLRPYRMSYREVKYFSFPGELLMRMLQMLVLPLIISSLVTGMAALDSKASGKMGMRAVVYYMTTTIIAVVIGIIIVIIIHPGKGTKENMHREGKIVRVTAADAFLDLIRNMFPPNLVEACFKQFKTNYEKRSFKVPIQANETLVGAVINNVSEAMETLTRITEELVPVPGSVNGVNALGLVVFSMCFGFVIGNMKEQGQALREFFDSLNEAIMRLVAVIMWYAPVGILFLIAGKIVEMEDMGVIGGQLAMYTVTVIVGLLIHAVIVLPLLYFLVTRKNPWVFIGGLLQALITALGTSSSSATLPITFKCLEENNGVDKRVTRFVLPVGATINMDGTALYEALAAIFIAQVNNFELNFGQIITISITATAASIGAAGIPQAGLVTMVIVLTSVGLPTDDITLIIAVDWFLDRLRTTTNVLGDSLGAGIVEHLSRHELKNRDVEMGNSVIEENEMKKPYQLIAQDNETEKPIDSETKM
structure (smiles),measurement,value
N[C@@H](CC(=O)O)C(=O)O [aspartate],Km,9 to 47 µM

# — publication doi:10.1101/2023.05.04.537313v1 (biorxiv, 2023)
